These results are taken from patent US11352354B2, “Substituted penta-fused hexa-heterocyclic compounds, preparation method therefor, drug combination and use thereof” (Xiamen University, priority 2017, dated 2022).

This assay relates to MDA-MB-231 cells. The assay can be described thus: Vacuolation of MDA-MB-231 cells caused by inhibition of compounds on PIKfyve (microscopy). It is filed as cell-based. To be noted: MDA-MB-231 cells. The source says: I. Determination of Vacuolation of MDA-MB-231 Cells Caused by Inhibition of Compounds on PIKfyve
When the activity of pikfyve kinase is inhibited, vacuoles will be produced in cytoplasm. By observing the number of vacuoles under a microscope, the ability of compounds to inhibit the activity of pikfyve kinase can be known.
1. Cell plating: cells in logarithmic growth phase were made into a single cell suspension, counted with a cell counter and diluted to a cell concentration of about 2×10^5/mL. Then, the cells were inoculated into a 12-well plate, and cultured in a 37° C., 5% CO2 incubator.
3. Vacuolation test: after 24 and 48 hours of culture, photos were taken under an […] to observe the degree of vacuolation.
(In the table, “+” represents the degree of vacuolation; more “+” indicates more obvious vacuolation; “−” represents no vacuolation)

Structures are written as SMILES.

For `Cc1ccc(NC(=O)c2cccc(C(F)(F)F)c2)cc1Nc1cc(-c2ccncc2)nc2[nH]ccc12` [I-a-10], the “degree of vacuolation, 1 μM, 24 h” value was “−”; the “degree of vacuolation, 1 μM, 48 h” value is recorded as “−”; the “degree of vacuolation, 10 μM, 24 h” value is listed as “++”; the “degree of vacuolation, 10 μM, 48 h” value is “++”.

For `Cc1ccc(C(=O)Nc2cccc(C(F)(F)F)c2)cc1Nc1cc(-c2ccncc2)nc2[nH]ccc12` [I-a-21], the “degree of vacuolation, 1 μM, 24 h” value is listed as “−”; the “degree of vacuolation, 1 μM, 48 h” value was “−”; the “degree of vacuolation, 10 μM, 24 h” value was “−”; the “degree of vacuolation, 10 μM, 48 h” value is “−”.

Take `Cc1ccc(C(=O)Nc2ccc(CN3CCN(C)CC3)c(C(F)(F)F)c2)cc1Nc1cc(-c2cccnc2)nc2[nH]ccc12` [I-a-24]: the “degree of vacuolation, 1 μM, 24 h” value was “−”; the “degree of vacuolation, 1 μM, 48 h” value was “−”; the “degree of vacuolation, 10 μM, 24 h” value is “−”; the “degree of vacuolation, 10 μM, 48 h” value is “−”.

Take `CN1CCN(Cc2cc(NC(=O)c3cccc(Nc4cc(-c5cccnc5)nc5[nH]ccc45)c3)cc(C(F)(F)F)c2)CC1` [I-a-26]: the “degree of vacuolation, 1 μM, 24 h” value was “−”; the “degree of vacuolation, 1 μM, 48 h” value is listed as “−”; the “degree of vacuolation, 10 μM, 24 h” value is “−”; the “degree of vacuolation, 10 μM, 48 h” value is listed as “−”.

Turning to `CN1CCN(Cc2cc(NC(=O)c3cccc(Nc4cc(-c5ccncc5)nc5[nH]ccc45)c3)cc(C(F)(F)F)c2)CC1` [I-a-27], the “degree of vacuolation, 1 μM, 24 h” value is reported as “+”; the “degree of vacuolation, 1 μM, 48 h” value was “−”; the “degree of vacuolation, 10 μM, 24 h” value is on record as “+”; the “degree of vacuolation, 10 μM, 48 h” value is “−”.

`O=C(Nc1cccc(C(F)(F)F)c1)c1cccc(Nc2cc(-c3cccnc3)nc3[nH]ccc23)c1` [I-a-30]: the “degree of vacuolation, 1 μM, 24 h” value is on record as “+”; the “degree of vacuolation, 1 μM, 48 h” value is reported as “+”; the “degree of vacuolation, 10 μM, 24 h” value is “+”; the “degree of vacuolation, 10 μM, 48 h” value is recorded as “+”.

For `Cc1ccc(C(=O)Nc2cc(C(F)(F)F)cc(C(F)(F)F)c2)cc1Nc1cc(-c2cccnc2)nc2[nH]ccc12` [I-a-31], the “degree of vacuolation, 1 μM, 24 h” value is “−”; the “degree of vacuolation, 1 μM, 48 h” value is “−”; the “degree of vacuolation, 10 μM, 24 h” value is recorded as “−”; the “degree of vacuolation, 10 μM, 48 h” value was “−”.

As for `COc1cccc(NC(=O)c2ccc(C)c(Nc3cc(-c4cccnc4)nc4[nH]ccc34)c2)c1` [I-a-32], the “degree of vacuolation, 1 μM, 24 h” value was “+”; the “degree of vacuolation, 1 μM, 48 h” value is reported as “++”; the “degree of vacuolation, 10 μM, 24 h” value is recorded as “+”; the “degree of vacuolation, 10 μM, 48 h” value is “++”.

`Cc1ccc(C(=O)Nc2cccc(OC(F)(F)F)c2)cc1Nc1cc(-c2cccnc2)nc2[nH]ccc12` [I-a-33]: the “degree of vacuolation, 1 μM, 24 h” value is on record as “+”; the “degree of vacuolation, 1 μM, 48 h” value is “++”; the “degree of vacuolation, 10 μM, 24 h” value is on record as “+”; the “degree of vacuolation, 10 μM, 48 h” value is given as “++”.

Turning to `Cc1cccc(NC(=O)c2ccc(C)c(Nc3cc(-c4cccnc4)nc4[nH]ccc34)c2)c1` [I-a-34], the “degree of vacuolation, 1 μM, 24 h” value is “+”; the “degree of vacuolation, 1 μM, 48 h” value is recorded as “++”; the “degree of vacuolation, 10 μM, 24 h” value is listed as “+”; the “degree of vacuolation, 10 μM, 48 h” value is on record as “++”.

As for `Cc1ccc(C(=O)Nc2cccc(Cl)c2)cc1Nc1cc(-c2cccnc2)nc2[nH]ccc12` [I-a-35], the “degree of vacuolation, 1 μM, 24 h” value is reported as “+”; the “degree of vacuolation, 1 μM, 48 h” value is “++”; the “degree of vacuolation, 10 μM, 24 h” value is on record as “+”; the “degree of vacuolation, 10 μM, 48 h” value is “++”.

Turning to `O=C(Nc1cccc(C(F)(F)F)c1)c1ccc(F)c(Nc2cc(-c3cccnc3)nc3[nH]ccc23)c1` [I-a-38], the “degree of vacuolation, 1 μM, 24 h” value is reported as “+”; the “degree of vacuolation, 1 μM, 48 h” value is reported as “+”; the “degree of vacuolation, 10 μM, 24 h” value is reported as “++”; the “degree of vacuolation, 10 μM, 48 h” value is “++”.

Turning to `Cc1ccc(NC(=S)Nc2cccc(C(F)(F)F)c2)cc1Nc1cc(-c2cccnc2)nc2[nH]ccc12` [I-a-40], the “degree of vacuolation, 1 μM, 24 h” value is on record as “+”; the “degree of vacuolation, 1 μM, 48 h” value was “+”; the “degree of vacuolation, 10 μM, 24 h” value is listed as “+”; the “degree of vacuolation, 10 μM, 48 h” value was “+”.

Consider `Cc1cc(NC(=O)c2ccc(C)c(Nc3cc(-c4cccnc4)nc4[nH]ccc34)c2)n(C)n1` [I-a-45], for which the “degree of vacuolation, 1 μM, 24 h” value is given as “−”; the “degree of vacuolation, 1 μM, 48 h” value is recorded as “+”; the “degree of vacuolation, 10 μM, 24 h” value was “+”; the “degree of vacuolation, 10 μM, 48 h” value is “+”.

`Cc1ccc(C(=O)Nc2ccc(CN3CCN(C)CC3)c(C(F)(F)F)c2)cc1Nc1cc(-c2cccnc2)nc2c1ccn2C` [I-b-5]: the “degree of vacuolation, 1 μM, 24 h” value is recorded as “−”; the “degree of vacuolation, 1 μM, 48 h” value is “−”; the “degree of vacuolation, 10 μM, 24 h” value is reported as “+”; the “degree of vacuolation, 10 μM, 48 h” value is “+”.

With `Cc1ccc(C(=O)Nc2cccc(C(F)(F)F)c2)cc1Nc1nc(-c2ccccc2)nc2c1cnn2C` [III-b-2], the “degree of vacuolation, 1 μM, 24 h” value is recorded as “−”; the “degree of vacuolation, 1 μM, 48 h” value was “−”; the “degree of vacuolation, 10 μM, 24 h” value is on record as “−”; the “degree of vacuolation, 10 μM, 48 h” value is listed as “−”.

As for `Cc1ccc(C(=O)Nc2ccc(CN3CCN(C)CC3)c(C(F)(F)F)c2)cc1Nc1nc(-c2ccncc2)nc2[nH]cnc12` [IV-a-5], the “degree of vacuolation, 1 μM, 24 h” value was “+”; the “degree of vacuolation, 1 μM, 48 h” value is “−”; the “degree of vacuolation, 10 μM, 24 h” value was “+”; the “degree of vacuolation, 10 μM, 48 h” value was “−”.

For `Cc1ccc(C(=O)Nc2cccc(OC(F)(F)F)c2)cc1Nc1nc(-c2ccncc2)nc2[nH]cnc12` [IV-a-7], the “degree of vacuolation, 1 μM, 24 h” value is given as “−”; the “degree of vacuolation, 1 μM, 48 h” value was “−”; the “degree of vacuolation, 10 μM, 24 h” value is on record as “+”; the “degree of vacuolation, 10 μM, 48 h” value is given as “++”.

Consider `Cc1ccc(C(=O)Nc2ccc(CN3CCN(C)CC3)c(C(F)(F)F)c2)cc1Nc1nc(-c2cccnc2)nc2c1ncn2C` [IV-b-9], for which the “degree of vacuolation, 1 μM, 48 h” value is “−” and the “degree of vacuolation, 10 μM, 48 h” value was “−”.

As to `Cc1ccc(C(=O)Nc2ccc(CN3CCN(C)CC3)c(C(F)(F)F)c2)cc1Nc1nc(-c2ccncc2)nc2c1ncn2C` [IV-b-10], the “degree of vacuolation, 1 μM, 48 h” value is listed as “−” and the “degree of vacuolation, 10 μM, 48 h” value is reported as “−”.

Turning to `Cc1ccc(C(=O)Nc2cccc(OC(F)(F)F)c2)cc1Nc1nc(-c2cccnc2)nc2c1ncn2C` [IV-b-11], the “degree of vacuolation, 1 μM, 24 h” value is reported as “+”; the “degree of vacuolation, 1 μM, 48 h” value is “+”; the “degree of vacuolation, 10 μM, 48 h” value is “+”.

With `O=C(Nc1cccc(C(F)(F)F)c1)c1cccc(Nc2nc(-c3cccnc3)nc3cc[nH]c23)c1` [V-a-1], the “degree of vacuolation, 1 μM, 24 h” value is on record as “−”; the “degree of vacuolation, 1 μM, 48 h” value is reported as “−”; the “degree of vacuolation, 10 μM, 24 h” value is recorded as “+”; the “degree of vacuolation, 10 μM, 48 h” value is on record as “+”.

On to `Cc1ccc(NC(=O)c2cccc(C(F)(F)F)c2)cc1Nc1nc(-c2cccnc2)nc2cc[nH]c12` [V-a-3], for which the “degree of vacuolation, 1 μM, 24 h” value is listed as “++”; the “degree of vacuolation, 1 μM, 48 h” value is recorded as “++”; the “degree of vacuolation, 10 μM, 24 h” value was “+”; the “degree of vacuolation, 10 μM, 48 h” value is on record as “+”.

For `Cc1ccc(NC(=O)c2cccc(C(F)(F)F)c2)cc1Nc1nc(-c2ccncc2)nc2cc[nH]c12` [V-a-4], the “degree of vacuolation, 1 μM, 24 h” value is “−”; the “degree of vacuolation, 1 μM, 48 h” value is “−”; the “degree of vacuolation, 10 μM, 24 h” value was “−”; the “degree of vacuolation, 10 μM, 48 h” value is on record as “−”.

In the case of `Cc1cn(-c2cc(NC(=O)c3ccc(C)c(Nc4nc(-c5cccnc5)nc5cc[nH]c45)c3)cc(C(F)(F)F)c2)cn1` [V-a-7], the “degree of vacuolation, 1 μM, 24 h” value is “−”; the “degree of vacuolation, 1 μM, 48 h” value is on record as “−”; the “degree of vacuolation, 10 μM, 24 h” value is on record as “+”; the “degree of vacuolation, 10 μM, 48 h” value is listed as “+”.

In the case of `Cc1cn(-c2cc(NC(=O)c3ccc(C)c(Nc4nc(-c5ccncc5)nc5cc[nH]c45)c3)cc(C(F)(F)F)c2)cn1` [V-a-8], the “degree of vacuolation, 1 μM, 24 h” value is “+”; the “degree of vacuolation, 1 μM, 48 h” value is “+”; the “degree of vacuolation, 10 μM, 24 h” value is recorded as “++”; the “degree of vacuolation, 10 μM, 48 h” value was “++”.

`Cc1ccc(C(=O)Nc2ccc(CN3CCN(C)CC3)c(C(F)(F)F)c2)cc1Nc1nc(-c2ccncc2)nc2cc[nH]c12` [V-a-10]: the “degree of vacuolation, 1 μM, 24 h” value is “++”; the “degree of vacuolation, 1 μM, 48 h” value was “++”; the “degree of vacuolation, 10 μM, 24 h” value is “−”; the “degree of vacuolation, 10 μM, 48 h” value is reported as “−”.

Take `Cc1ccc(NC(=O)c2cccc(C(F)(F)F)c2)cc1Nc1nc(-c2ccncc2)nc2ccn(C)c12` [V-b-2]: the “degree of vacuolation, 1 μM, 24 h” value is listed as “−”; the “degree of vacuolation, 1 μM, 48 h” value is “−”; the “degree of vacuolation, 10 μM, 24 h” value was “++”; the “degree of vacuolation, 10 μM, 48 h” value is “++”.

As for `Cc1ccc(C(=O)Nc2cccc(C(F)(F)F)c2)cc1Nc1nc(-c2cccnc2)nc2ccn(C)c12` [V-b-3], the “degree of vacuolation, 1 μM, 24 h” value is reported as “+”; the “degree of vacuolation, 1 μM, 48 h” value is on record as “+”; the “degree of vacuolation, 10 μM, 24 h” value was “++”; the “degree of vacuolation, 10 μM, 48 h” value was “++”.

As to `Cc1ccc(C(=O)Nc2ccc(CN3CCN(C)CC3)c(C(F)(F)F)c2)cc1Nc1nc(-c2cccnc2)nc2ccn(C)c12` [V-b-7], the “degree of vacuolation, 1 μM, 24 h” value is “+”; the “degree of vacuolation, 1 μM, 48 h” value was “+”; the “degree of vacuolation, 10 μM, 24 h” value was “−”; the “degree of vacuolation, 10 μM, 48 h” value is given as “−”.

As to `COc1ccc(Br)cc1NC(=O)Nc1cccc(-c2nc(NCc3cccnc3)c3c(ccn3C)n2)c1` [V-b-29], the “degree of vacuolation, 1 μM, 24 h” value is recorded as “+”; the “degree of vacuolation, 1 μM, 48 h” value is given as “−”; the “degree of vacuolation, 10 μM, 24 h” value was “−”; the “degree of vacuolation, 10 μM, 48 h” value is recorded as “−”.
